# Tested on: not listed separately
# Test: Cytotoxicity in uninfected MT-4 cells (MTT assay)
# Format: cell-based
# Conditions: human, uninfected MT-4 cells, Mean ± SD, at least three independent experiments
# Experimental: (§1) The test was performed as follows. […] The toxicity test was performed in parallel with the anti-HIV activity test. […] Moreover, a selection index (SI=[…]) was also calculated.
# (§2) The compound to be tested was dissolved in DMSO or water and diluted gradiently with phosphate-buffered saline solution. […] 100 μL of a virus dilution at an appropriate concentration was added, and co-cultured with the MT-4 cells at 37° C. for 1 h. Then, the MT-4 cells were collected, washed three times, resuspended with a culture medium with or without the compound to be tested and cultured at 37° C. and 5% CO2 for 7 d. On the third day of the infection, the culture medium was correspondingly replaced with the culture medium with or without the compound to be tested. Each culture process was repeated twice. The HIV-induced cytopathy was monitored daily with a reverse optical microscope. […] Considering that the DMSO may affect the antiviral activity of the compound to be tested, it is necessary to design a blank control using the same concentration of DMSO.
row,SMILES,CC50 at 7 d
1,"Cc1ccnc2c1NC(=O)c1cccnc1N2C1CC1 [NVP, Nevirapine, reference compound]",> 15000 nM

# Tested on: MT-4 cells
# Test: Cytotoxicity in uninfected MT-4 cells (MTT assay)
# Format: cell-based
# Conditions: Mean ± SD, at least three independent experiments
# Experimental: as §1, §2
row,SMILES,CC50
1,N#Cc1ccc(Nc2nccc(Nc3c(F)cc(-c4ccnc(-c5ccnc(Cl)c5)c4)cc3F)n2)cc1 [compound 19],51000 ± 41000 nM
2,COc1cc(-c2cc(F)c(Nc3ccnc(Nc4ccc(C#N)cc4)n3)c(F)c2)ccn1 [compound 22],6700 ± 980 nM
3,N#Cc1ccc(Nc2nccc(Nc3c(F)cc(-c4cccs4)cc3F)n2)cc1 [compound 6],> 308000 nM
4,Cc1cc(-c2cc(F)c(Nc3ccnc(Nc4ccc(C#N)cc4)n3)c(F)c2)ccn1 [compound 20],3200 ± 1100 nM
5,N#Cc1ccc(Nc2nccc(Nc3c(F)cc(-c4cn[nH]c4)cc3F)n2)cc1 [compound 8],3100 ± 1700 nM
6,N#Cc1ccc(Nc2nccc(Nc3c(F)cc(-c4cccnc4)cc3F)n2)cc1 [compound 2],242000 ± 42000 nM
7,N#Cc1ccc(Nc2nccc(Nc3c(F)cc(-c4ccc(N)cc4)cc3F)n2)cc1 [compound 23],> 303000 nM
8,N#Cc1ccc(Nc2nccc(Nc3c(F)cc(-c4cc(Cl)nc(Cl)c4)cc3F)n2)cc1 [compound 10],5400 ± 540 nM
9,N#Cc1ccc(Nc2nccc(Nc3c(F)cc(-c4cncnc4)cc3F)n2)cc1 [compound 3],2700 ± 1700 nM
10,N#Cc1ccc(Nc2nccc(Nc3c(F)cc(-c4ccnc(F)c4F)cc3F)n2)cc1 [compound 17],> 286000 nM
11,Cc1cc(-c2cc(F)c(Nc3ccnc(Nc4ccc(C#N)cc4)n3)c(F)c2)cc(C)n1 [compound 21],1200 ± 110 nM
12,N#Cc1ccc(Nc2nccc(Nc3c(F)cc(-c4ccnc(Cl)c4Cl)cc3F)n2)cc1 [compound 11],20000 ± 16000 nM
13,N#Cc1ccc(Nc2nccc(Nc3c(F)cc(-c4ccncc4F)cc3F)n2)cc1 [compound 15],3300 ± 1500 nM
14,N#Cc1ccc(Nc2nccc(Nc3c(F)cc(-c4ccnc(F)c4)cc3F)n2)cc1 [compound 9],5000 ± 900 nM
15,"O=C1Nc2ccc(Cl)cc2[C@@](C#CC2CC2)(C(F)(F)F)O1 [EFV, Efavirenz, reference compound]",> 6330 nM
16,N#Cc1ccc(Nc2nccc(Nc3c(F)cc(-c4cc(F)nc(F)c4)cc3F)n2)cc1 [compound 16],11000 ± 6800 nM
17,N#Cc1ccc(Nc2nccc(Nc3c(F)cc(-c4ccsc4)cc3F)n2)cc1 [compound 7],55400 ± 18700 nM
18,"Cc1cc(C#N)cc(C)c1Oc1nc(Nc2ccc(C#N)cc2)nc(N)c1Br [ETR, Etravirine, reference compound]",> 4600 nM
19,N#Cc1ccc(Nc2nccc(Nc3c(F)cc(-c4ccoc4)cc3F)n2)cc1 [compound 5],10600 ± 1800 nM
20,N#Cc1ccc(Nc2nccc(Nc3c(F)cc(-c4ccnc(Cl)c4)cc3F)n2)cc1 [compound 18],4200 ± 450 nM
21,N#Cc1ccc(Nc2nccc(Nc3c(F)cc(-c4csc5ccccc45)cc3F)n2)cc1 [compound 13],16000 ± 6000 nM
22,N#Cc1ccc(Nc2nccc(Nc3c(F)cc(-c4ccnc(C#N)c4F)cc3F)n2)cc1 [compound 14],> 282000 nM
23,N#Cc1ccc(Nc2nccc(Nc3c(F)cc(-c4coc5ccccc45)cc3F)n2)cc1 [compound 12],87000 ± 54000 nM
24,N#Cc1ccc(Nc2nccc(Nc3c(F)cc(-c4ccco4)cc3F)n2)cc1 [compound 4],16600 ± 6900 nM

# Tested on: HIV-1-IIIB strain
# Test: Anti-HIV activity: protection of HIV-infected MT-4 cells from HIV-induced cytopathy (MTT assay)
# Conditions: HIV-1 IIIB, MT-4 cells
# Experimental: as §1
# The anti-HIV activity of the compound to be tested was evaluated by the inhibitory effect on the HIV-induced cytopathy in the cell.
# Viruses: HIV-1-IIIB strain and HIV-2 ROD strain.
# as §2
row,SMILES,"SI(IIIB), selection index (CC50/EC50)"
1,N#Cc1ccc(Nc2nccc(Nc3c(F)cc(-c4ccnc(-c5ccnc(Cl)c5)c4)cc3F)n2)cc1 [compound 19],3068
2,COc1cc(-c2cc(F)c(Nc3ccnc(Nc4ccc(C#N)cc4)n3)c(F)c2)ccn1 [compound 22],501
3,N#Cc1ccc(Nc2nccc(Nc3c(F)cc(-c4cccs4)cc3F)n2)cc1 [compound 6],">74,627"
4,Cc1cc(-c2cc(F)c(Nc3ccnc(Nc4ccc(C#N)cc4)n3)c(F)c2)ccn1 [compound 20],777
5,N#Cc1ccc(Nc2nccc(Nc3c(F)cc(-c4cn[nH]c4)cc3F)n2)cc1 [compound 8],298
6,N#Cc1ccc(Nc2nccc(Nc3c(F)cc(-c4cccnc4)cc3F)n2)cc1 [compound 2],"32,698"
7,N#Cc1ccc(Nc2nccc(Nc3c(F)cc(-c4ccc(N)cc4)cc3F)n2)cc1 [compound 23],">32,895"
8,N#Cc1ccc(Nc2nccc(Nc3c(F)cc(-c4cc(Cl)nc(Cl)c4)cc3F)n2)cc1 [compound 10],97
9,N#Cc1ccc(Nc2nccc(Nc3c(F)cc(-c4cncnc4)cc3F)n2)cc1 [compound 3],229
10,N#Cc1ccc(Nc2nccc(Nc3c(F)cc(-c4ccnc(F)c4F)cc3F)n2)cc1 [compound 17],">147,059"
11,Cc1cc(-c2cc(F)c(Nc3ccnc(Nc4ccc(C#N)cc4)n3)c(F)c2)cc(C)n1 [compound 21],21
12,N#Cc1ccc(Nc2nccc(Nc3c(F)cc(-c4ccnc(Cl)c4Cl)cc3F)n2)cc1 [compound 11],3673
13,N#Cc1ccc(Nc2nccc(Nc3c(F)cc(-c4ccncc4F)cc3F)n2)cc1 [compound 15],2566
14,N#Cc1ccc(Nc2nccc(Nc3c(F)cc(-c4ccnc(F)c4)cc3F)n2)cc1 [compound 9],1311
15,"O=C1Nc2ccc(Cl)cc2[C@@](C#CC2CC2)(C(F)(F)F)O1 [EFV, Efavirenz, reference compound]",>1600
16,N#Cc1ccc(Nc2nccc(Nc3c(F)cc(-c4cc(F)nc(F)c4)cc3F)n2)cc1 [compound 16],1966
17,N#Cc1ccc(Nc2nccc(Nc3c(F)cc(-c4ccsc4)cc3F)n2)cc1 [compound 7],14032
18,"Cc1cc(C#N)cc(C)c1Oc1nc(Nc2ccc(C#N)cc2)nc(N)c1Br [ETR, Etravirine, reference compound]",>1159
19,N#Cc1ccc(Nc2nccc(Nc3c(F)cc(-c4ccoc4)cc3F)n2)cc1 [compound 5],3291
20,N#Cc1ccc(Nc2nccc(Nc3c(F)cc(-c4ccnc(Cl)c4)cc3F)n2)cc1 [compound 18],622
21,N#Cc1ccc(Nc2nccc(Nc3c(F)cc(-c4csc5ccccc45)cc3F)n2)cc1 [compound 13],132
22,N#Cc1ccc(Nc2nccc(Nc3c(F)cc(-c4ccnc(C#N)c4F)cc3F)n2)cc1 [compound 14],">142,857"
23,N#Cc1ccc(Nc2nccc(Nc3c(F)cc(-c4coc5ccccc45)cc3F)n2)cc1 [compound 12],1991
24,N#Cc1ccc(Nc2nccc(Nc3c(F)cc(-c4ccco4)cc3F)n2)cc1 [compound 4],7910

# Same assay, conditions: Human immunodeficiency virus 1, IIIB, MT4
row,SMILES,EC50
1,N#Cc1ccc(Nc2nccc(Nc3c(F)cc(-c4ccnc(-c5ccnc(Cl)c5)c4)cc3F)n2)cc1 [compound 19],16.8 ± 3 nM
2,COc1cc(-c2cc(F)c(Nc3ccnc(Nc4ccc(C#N)cc4)n3)c(F)c2)ccn1 [compound 22],13 ± 2.9 nM
3,N#Cc1ccc(Nc2nccc(Nc3c(F)cc(-c4cccs4)cc3F)n2)cc1 [compound 6],4.1 ± 2 nM
4,Cc1cc(-c2cc(F)c(Nc3ccnc(Nc4ccc(C#N)cc4)n3)c(F)c2)ccn1 [compound 20],4.1 ± 1.1 nM
5,N#Cc1ccc(Nc2nccc(Nc3c(F)cc(-c4cn[nH]c4)cc3F)n2)cc1 [compound 8],10 ± 6 nM
6,N#Cc1ccc(Nc2nccc(Nc3c(F)cc(-c4cccnc4)cc3F)n2)cc1 [compound 2],7.4 ± 1.76 nM
7,N#Cc1ccc(Nc2nccc(Nc3c(F)cc(-c4ccc(N)cc4)cc3F)n2)cc1 [compound 23],9.2 ± 3.6 nM
8,N#Cc1ccc(Nc2nccc(Nc3c(F)cc(-c4cc(Cl)nc(Cl)c4)cc3F)n2)cc1 [compound 10],56 ± 32.6 nM
9,N#Cc1ccc(Nc2nccc(Nc3c(F)cc(-c4cncnc4)cc3F)n2)cc1 [compound 3],11.9 ± 3.2 nM
10,N#Cc1ccc(Nc2nccc(Nc3c(F)cc(-c4ccnc(F)c4F)cc3F)n2)cc1 [compound 17],2 ± 0.48 nM
11,Cc1cc(-c2cc(F)c(Nc3ccnc(Nc4ccc(C#N)cc4)n3)c(F)c2)cc(C)n1 [compound 21],56 ± 18 nM
12,N#Cc1ccc(Nc2nccc(Nc3c(F)cc(-c4ccnc(Cl)c4Cl)cc3F)n2)cc1 [compound 11],5.5 ± 0.7 nM
13,N#Cc1ccc(Nc2nccc(Nc3c(F)cc(-c4ccncc4F)cc3F)n2)cc1 [compound 15],1.3 ± 0.6 nM
14,N#Cc1ccc(Nc2nccc(Nc3c(F)cc(-c4ccnc(F)c4)cc3F)n2)cc1 [compound 9],3.8 ± 3.2 nM
15,"O=C1Nc2ccc(Cl)cc2[C@@](C#CC2CC2)(C(F)(F)F)O1 [EFV, Efavirenz, reference compound]",4 ± 1.5 nM
16,N#Cc1ccc(Nc2nccc(Nc3c(F)cc(-c4cc(F)nc(F)c4)cc3F)n2)cc1 [compound 16],5.6 ± 1.5 nM
17,N#Cc1ccc(Nc2nccc(Nc3c(F)cc(-c4ccsc4)cc3F)n2)cc1 [compound 7],3.9 ± 1.4 nM
18,"Cc1cc(C#N)cc(C)c1Oc1nc(Nc2ccc(C#N)cc2)nc(N)c1Br [ETR, Etravirine, reference compound]",4 ± 0.68 nM
19,N#Cc1ccc(Nc2nccc(Nc3c(F)cc(-c4ccoc4)cc3F)n2)cc1 [compound 5],3.2 ± 0.18 nM
20,N#Cc1ccc(Nc2nccc(Nc3c(F)cc(-c4ccnc(Cl)c4)cc3F)n2)cc1 [compound 18],6.8 ± 3.4 nM
21,N#Cc1ccc(Nc2nccc(Nc3c(F)cc(-c4csc5ccccc45)cc3F)n2)cc1 [compound 13],124 ± 78 nM
22,N#Cc1ccc(Nc2nccc(Nc3c(F)cc(-c4ccnc(C#N)c4F)cc3F)n2)cc1 [compound 14],1.98 ± 0.42 nM
23,N#Cc1ccc(Nc2nccc(Nc3c(F)cc(-c4coc5ccccc45)cc3F)n2)cc1 [compound 12],44 ± 10.1 nM
24,N#Cc1ccc(Nc2nccc(Nc3c(F)cc(-c4ccco4)cc3F)n2)cc1 [compound 4],2.1 nM

# Tested on: not given
# Test: not given
# Conditions: prior art; cited from earlier work
row,SMILES,water solubility
1,"Cc1cc(C#N)cc(C)c1Oc1nc(Nc2ccc(C#N)cc2)nc(N)c1Br [ETR, Etravirine, reference compound]",< 1 µg/mL

# — US11912685B2, “Biphenyl diaryl pyrimidine derivative with aromatic heterocyclic structure” (priority 2021, dated 2024)
